# Laboratory results published in patent publication US20240352021A1 (DANA-FARBER CANCER INSTITUTE, INC., priority 2021, published 2024).
# How the values were obtained:
# EGFR L858R = EGFR L858R (Homo sapiens, UniProt P00533, L858R); assay: EGFR biochemical assay (headed HTRF-based; method describes Z'-LYTE), L858R; details: Table 4
# Protocol: (§1) To measure the IC50 values of compounds herein against EGFR, a Z′-LYTE assay (ThermoFisher) was used. Briefly, 2.5 μL of different concentrations of the compounds in 4% DMSO were added to 5 μL kinase/peptide mixture in each well of a 384-well plate (Corning Cat. #3676). 2.5 μL of 4× ATP solution (4× ATP, 50 mM HEPES, pH 7.5, 0.01% BRIJ-35, 10 mM MgCl2, 1 mM EGTA) were added to each well. The plate was shaken for 30 seconds, and then incubated at room temperature for 60 minutes. 5 μL of a 1:100000 dilution of Development Reagent A was added to each well. The plate was then incubated for 60 mins at room temperature. 5 μL of the stop reagent was then added. The plate was subsequently read on a fluorescence plate reader, and the emissions ratio was calculated to determine the ratio of Ser/Thr 07 phosphorylated by the reaction. Emissions Ratio═Coumarin Emission (443 nm)/Flourescein Emission (520 nm).
# (§2) HTRF-based EGFR assay data are provided below in Table 4.
# EGFR L858R/T790M = EGFR L858R/T790M (Homo sapiens, UniProt P00533, L858R/T790M); assay: EGFR biochemical assay (headed HTRF-based; method describes Z'-LYTE), L858R/T790M; details: Table 4
# Sequence of EGFR L858R/T790M (P00533 25-1210 T790M/L858R): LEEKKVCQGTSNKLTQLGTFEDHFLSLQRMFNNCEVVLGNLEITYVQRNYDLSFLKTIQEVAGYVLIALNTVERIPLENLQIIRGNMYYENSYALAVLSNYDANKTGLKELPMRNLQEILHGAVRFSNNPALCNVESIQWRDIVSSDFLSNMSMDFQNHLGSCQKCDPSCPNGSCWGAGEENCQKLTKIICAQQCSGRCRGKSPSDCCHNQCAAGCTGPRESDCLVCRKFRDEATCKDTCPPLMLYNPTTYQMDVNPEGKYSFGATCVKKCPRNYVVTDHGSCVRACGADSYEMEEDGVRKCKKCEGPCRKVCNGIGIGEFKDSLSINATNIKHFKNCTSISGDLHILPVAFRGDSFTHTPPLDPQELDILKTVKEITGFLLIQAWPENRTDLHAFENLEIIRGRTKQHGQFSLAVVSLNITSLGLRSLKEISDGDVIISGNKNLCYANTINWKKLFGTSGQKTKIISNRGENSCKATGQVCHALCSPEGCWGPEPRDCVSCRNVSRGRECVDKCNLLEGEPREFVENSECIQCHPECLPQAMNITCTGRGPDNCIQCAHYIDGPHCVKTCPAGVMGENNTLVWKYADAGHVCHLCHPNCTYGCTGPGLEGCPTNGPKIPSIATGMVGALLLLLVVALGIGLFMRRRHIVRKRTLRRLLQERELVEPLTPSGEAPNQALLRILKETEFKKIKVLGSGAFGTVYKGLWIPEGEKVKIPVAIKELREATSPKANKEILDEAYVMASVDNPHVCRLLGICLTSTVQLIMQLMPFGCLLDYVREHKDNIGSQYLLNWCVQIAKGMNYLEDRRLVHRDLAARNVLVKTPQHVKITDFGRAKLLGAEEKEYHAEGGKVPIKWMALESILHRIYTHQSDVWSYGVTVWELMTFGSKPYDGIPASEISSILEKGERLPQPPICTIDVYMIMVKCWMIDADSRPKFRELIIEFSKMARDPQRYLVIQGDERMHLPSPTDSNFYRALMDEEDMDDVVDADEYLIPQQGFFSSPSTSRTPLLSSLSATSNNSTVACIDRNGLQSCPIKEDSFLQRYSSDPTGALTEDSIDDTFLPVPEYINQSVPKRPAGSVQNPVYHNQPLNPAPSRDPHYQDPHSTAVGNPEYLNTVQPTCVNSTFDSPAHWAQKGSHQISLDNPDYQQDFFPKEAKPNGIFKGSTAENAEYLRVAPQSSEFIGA
# Protocol: as §1, §2
# [1] = target: EGFR mutant L858R Ba/F3 cells (Homo sapiens, UniProt P00533, L858R, cells depend on it); assay: Ba/F3 cell proliferation (Cell Titer Glo), EGFR L858R; assay type: cell-based, murine; details: 72 hours, Table 6, read-out: L858R BaF3
# Sequence of EGFR mutant L858R Ba/F3 cells (P00533 whole entry L858R, the tested form may be a part): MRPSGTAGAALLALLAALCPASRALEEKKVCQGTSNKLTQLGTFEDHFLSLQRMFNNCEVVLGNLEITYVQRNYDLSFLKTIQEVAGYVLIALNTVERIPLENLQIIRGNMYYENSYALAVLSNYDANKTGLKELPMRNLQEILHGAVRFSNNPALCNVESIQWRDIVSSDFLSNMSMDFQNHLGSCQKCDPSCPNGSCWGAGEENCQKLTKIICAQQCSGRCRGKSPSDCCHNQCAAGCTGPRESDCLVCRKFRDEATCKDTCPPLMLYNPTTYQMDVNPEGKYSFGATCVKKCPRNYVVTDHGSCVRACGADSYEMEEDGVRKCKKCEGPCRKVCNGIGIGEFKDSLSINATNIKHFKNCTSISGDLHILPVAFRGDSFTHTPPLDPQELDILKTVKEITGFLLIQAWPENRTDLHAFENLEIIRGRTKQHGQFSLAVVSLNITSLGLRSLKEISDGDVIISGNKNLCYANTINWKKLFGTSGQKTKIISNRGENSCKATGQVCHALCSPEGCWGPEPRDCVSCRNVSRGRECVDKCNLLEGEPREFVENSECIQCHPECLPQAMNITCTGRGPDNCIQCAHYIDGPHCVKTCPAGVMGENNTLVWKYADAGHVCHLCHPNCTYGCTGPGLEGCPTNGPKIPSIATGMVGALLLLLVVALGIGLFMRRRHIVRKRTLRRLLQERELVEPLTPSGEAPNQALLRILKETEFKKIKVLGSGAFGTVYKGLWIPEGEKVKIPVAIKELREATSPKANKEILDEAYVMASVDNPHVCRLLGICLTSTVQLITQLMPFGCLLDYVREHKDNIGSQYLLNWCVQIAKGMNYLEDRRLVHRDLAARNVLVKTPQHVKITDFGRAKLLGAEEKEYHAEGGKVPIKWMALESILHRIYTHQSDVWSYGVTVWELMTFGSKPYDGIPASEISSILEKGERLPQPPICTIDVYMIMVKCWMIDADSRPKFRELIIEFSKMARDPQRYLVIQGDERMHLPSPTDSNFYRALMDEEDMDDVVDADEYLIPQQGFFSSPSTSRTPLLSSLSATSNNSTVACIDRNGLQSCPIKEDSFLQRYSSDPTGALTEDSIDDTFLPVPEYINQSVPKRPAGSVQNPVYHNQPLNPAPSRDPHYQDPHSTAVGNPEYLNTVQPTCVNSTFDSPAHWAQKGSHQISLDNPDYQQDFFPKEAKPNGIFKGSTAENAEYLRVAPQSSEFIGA
# Description: (§3) The EGFR mutant L858R Ba/F3 cells have been previously described (Zhou, W., et al. Nature 462, 2009, 1070-1074). The EGFR C797S and C775S mutations were introduced via site directed mutagenesis using the Quick Change Site-Directed Mutagenesis kit into a vector containing EGFR L858R mutation (Stratagene; La Jolla, CA) according to the manufacturer's instructions. All constructs were confirmed by DNA sequencing. The constructs were then shuttled into the retroviral vector JP1540 by either using the Cre-recombination system (Agilent Technologies, Santa Clara, CA) or the In-fusion HD Cloning kit (Takara Bio USA, Inc.; Mountain view, CA). Ba/F3 cells were then infected with retrovirus per standard protocols, as described previously (Zhou, et al, Nature 2009). Stable clones were obtained by selection in puromycin (2 μg/ml). All BaF/3 mutant cells were maintained in RPMI 1640 (Cellgro; Mediatech Inc., Herndon, CA) supplemented with 10% FBS, 100 units/mL penicillin, 100 units/mL streptomycin.
# (§4) Growth and inhibition of growth was assessed by the Cell Titer Glo assay (Promega, Madison, WI) and was performed according to the manufacturer's instructions. The Cell Titer Glo assay is a luminescence-based method used to determine the number of viable cells based on quantitation of the ATP present, which is directly proportional to the amount of metabolically active cells present. Ba/F3 cells of different EGFR genotypes were exposed to compounds for 72 hours and the number of cells used per experiment was determined empirically as has been previously established (Zhou, et al., Nature 2009). All experimental points were set up in triplicates in 384-well plates. […] The curves were fitted using a non-linear regression model with a sigmoidal dose response.
# (§5) Ba/F3 cells assay data are provided below in Table 5 and Table 6. For inhibitory activity against EGFR mutants, the following designations are used: <0.1 μM=A, 0.1 μM˜0.5 μM=B, 0.5 μM˜2.5 μM=C, ≥2.5 μM=D
# [2] = target: EGFR L858R/C797S Ba/F3 cells (Homo sapiens, UniProt P00533, C797S/L858R, cells depend on it); assay: Ba/F3 cell proliferation (Cell Titer Glo), EGFR L858R/C797S; assay type: cell-based, murine; details: 72 hours, Table 6
# Sequence of EGFR L858R/C797S Ba/F3 cells (P00533 whole entry C797S/L858R): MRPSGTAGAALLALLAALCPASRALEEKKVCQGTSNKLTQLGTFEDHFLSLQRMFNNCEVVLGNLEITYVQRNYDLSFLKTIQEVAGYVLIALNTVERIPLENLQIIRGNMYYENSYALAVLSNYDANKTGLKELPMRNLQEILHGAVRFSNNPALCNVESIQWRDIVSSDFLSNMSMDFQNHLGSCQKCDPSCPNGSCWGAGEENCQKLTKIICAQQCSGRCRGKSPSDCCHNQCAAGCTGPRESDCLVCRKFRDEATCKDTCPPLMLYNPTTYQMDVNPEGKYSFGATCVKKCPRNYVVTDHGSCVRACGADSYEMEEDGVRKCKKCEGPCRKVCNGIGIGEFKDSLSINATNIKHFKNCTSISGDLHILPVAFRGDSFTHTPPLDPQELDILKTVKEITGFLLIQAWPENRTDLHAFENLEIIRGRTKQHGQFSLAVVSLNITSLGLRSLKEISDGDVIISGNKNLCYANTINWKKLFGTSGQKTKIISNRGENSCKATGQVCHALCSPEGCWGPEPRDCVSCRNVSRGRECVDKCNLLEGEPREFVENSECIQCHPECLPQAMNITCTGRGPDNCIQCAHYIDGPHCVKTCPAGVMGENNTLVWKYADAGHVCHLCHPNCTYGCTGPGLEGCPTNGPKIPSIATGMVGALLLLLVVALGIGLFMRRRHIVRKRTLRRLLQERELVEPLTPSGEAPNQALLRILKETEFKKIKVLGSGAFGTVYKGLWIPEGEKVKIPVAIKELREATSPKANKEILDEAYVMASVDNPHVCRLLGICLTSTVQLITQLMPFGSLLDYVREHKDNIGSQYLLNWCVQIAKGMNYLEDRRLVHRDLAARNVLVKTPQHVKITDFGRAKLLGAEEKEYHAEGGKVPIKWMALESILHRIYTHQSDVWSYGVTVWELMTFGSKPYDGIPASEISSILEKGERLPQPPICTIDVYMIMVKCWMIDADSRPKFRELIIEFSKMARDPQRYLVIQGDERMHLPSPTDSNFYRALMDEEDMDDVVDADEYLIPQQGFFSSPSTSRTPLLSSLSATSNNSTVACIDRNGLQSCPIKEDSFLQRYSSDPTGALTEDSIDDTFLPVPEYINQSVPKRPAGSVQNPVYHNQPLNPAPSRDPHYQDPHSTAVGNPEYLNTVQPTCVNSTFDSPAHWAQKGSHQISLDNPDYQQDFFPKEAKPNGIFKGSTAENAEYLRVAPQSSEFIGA
# Description: as §3, §4, §5
# Sequence of EGFR L858R (P00533 25-1210 L858R): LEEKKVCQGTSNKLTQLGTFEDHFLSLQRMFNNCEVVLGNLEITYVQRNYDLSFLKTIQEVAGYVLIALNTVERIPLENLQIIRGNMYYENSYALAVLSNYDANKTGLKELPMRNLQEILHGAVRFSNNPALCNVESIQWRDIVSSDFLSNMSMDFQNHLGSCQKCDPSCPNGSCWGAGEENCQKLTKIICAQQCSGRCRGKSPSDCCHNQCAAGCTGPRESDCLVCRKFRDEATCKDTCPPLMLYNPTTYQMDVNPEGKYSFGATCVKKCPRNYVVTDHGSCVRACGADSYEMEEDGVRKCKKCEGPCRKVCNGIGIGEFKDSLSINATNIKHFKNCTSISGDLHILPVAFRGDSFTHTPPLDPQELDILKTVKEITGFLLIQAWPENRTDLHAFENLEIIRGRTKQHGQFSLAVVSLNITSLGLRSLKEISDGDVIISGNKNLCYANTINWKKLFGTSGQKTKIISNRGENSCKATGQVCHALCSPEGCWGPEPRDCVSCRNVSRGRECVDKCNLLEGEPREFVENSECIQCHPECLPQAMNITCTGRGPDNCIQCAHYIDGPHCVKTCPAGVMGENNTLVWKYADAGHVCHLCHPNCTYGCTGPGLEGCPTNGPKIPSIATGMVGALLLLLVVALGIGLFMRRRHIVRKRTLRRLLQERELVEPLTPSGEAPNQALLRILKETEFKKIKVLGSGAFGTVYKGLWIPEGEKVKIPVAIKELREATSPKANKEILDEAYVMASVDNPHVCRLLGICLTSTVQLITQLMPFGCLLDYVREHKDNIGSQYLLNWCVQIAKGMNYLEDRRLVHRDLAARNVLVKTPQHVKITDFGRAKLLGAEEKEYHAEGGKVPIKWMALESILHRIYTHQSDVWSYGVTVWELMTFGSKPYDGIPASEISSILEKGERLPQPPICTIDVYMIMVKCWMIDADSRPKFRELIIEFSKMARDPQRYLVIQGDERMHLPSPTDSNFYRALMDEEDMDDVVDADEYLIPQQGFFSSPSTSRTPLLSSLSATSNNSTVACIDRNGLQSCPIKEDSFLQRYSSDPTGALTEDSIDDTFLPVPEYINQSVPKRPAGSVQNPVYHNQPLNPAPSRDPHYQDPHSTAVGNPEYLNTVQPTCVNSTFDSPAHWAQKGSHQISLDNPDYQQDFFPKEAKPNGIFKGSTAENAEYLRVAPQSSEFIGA
IC50 (EGFR L858R),IC50 (EGFR L858R/T790M),GI50 [1],GI50 [2],SMILES
> 1000 nM,> 1000 nM,500 to 2500 nM,≥ 2500 nM,"C=CC(=O)N1CCC(N2Cc3cnc(Nc4ccc(N5CCN(C)CC5)cc4)nc3N(C)C2=O)c2cccc(C(F)(F)F)c21 (stereo not drawn) [Compound 143, 1-methyl-7-[4-(4-methylpiperazin-1-yl)anilino]-S-[1-prop-2-enoyl-8-(trifluoromethyl)-3,4-dihydro-2H-quinolin-4-yl]-4H-pyrimido[4,5-d]pyrimidin-2-one]"
> 100 nM,> 100 nM,≥ 2500 nM,,"C=CC(=O)N1CCC(N2Cc3cnc(Nc4ccc(N5CCN(C)CC5)cc4)nc3N(C)C2=O)c2cccc(OC)c21 (single isomer, unassigned) [Compound 124]"
0.97 nM,> 1000 nM,< 100 nM,< 100 nM,"C=CC(=O)N1CC[C@H](N2Cc3cnc(Nc4ccc(N5CCN(C)CC5)cc4)nc3N(C)C2=O)c2cccc(C)c21 [Compound 140, 1-methyl-7-[4-(4-methylpiperazin-1-yl)anilino]-S-[(4S)-8-methyl-1-prop-2-enoyl-3,4-dihydro-2H-quinolin-4-yl]-4H-pyrimido[4,5-d]pyrimidin-2-one]"
1.07 nM,0.71 nM,< 100 nM,< 100 nM,"C=CC(=O)Nc1cccc(N2C(=O)N(C3CCN(C(=O)C=C)c4ccccc43)Cc3cnc(Nc4ccc(N5CCN(C)CC5)cc4)nc32)c1 (stereo not drawn) [Compound 158, N-[3-[7-[4-(4-methylpiperazin-1-yl)anilino]-2-oxo-S-(1-prop-2-enoyl-3,4-dihydro-2H-quinolin-4-yl)-4H-pyrimido[4,5-d]pyrimidin-1-yl]phenyl]prop-2-enamide]"
43 nM,> 1000 nM,< 100 nM,100 to 500 nM,"[2H]C1(N2Cc3cnc(Nc4ccc(N5CCN(C)CC5)cc4)nc3N(C)C2=O)CCN(C(=O)C=C)c2c(OC)cccc21 (centres unmarked) [Compound 130, 3-(4-deuterio-8-methoxy-1-prop-2-enoyl-2,3-dihydroquinolin-4-yl)-1-methyl-7-[4-(4-methylpiperazin-1-yl)anilino]-4H-pyrimido[4,5-d]pyrimidin-2-one]"
12.3 nM,85.7 nM,< 100 nM,100 to 500 nM,"C=CC(=O)N1CC[C@@H](N2Cc3cnc(Nc4ccc(N5CCN(C)CC5)cc4)nc3N(C)C2=O)c2cccc(O)c21 (single isomer, unassigned) [Compound 155]"
> 1000 nM,> 1000 nM,≥ 2500 nM,≥ 2500 nM,"C=CC(=O)N1C[C@@H](N2Cc3cnc(Nc4ccc(N5CCN(C)CC5)cc4)nc3N(C)C2=O)C[C@@H]1C(=O)O [Compound 138, (2R,4S)-4-[1-methyl-7-[4-(4-methylpiperazin-1-yl)anilino]-2-oxo-4H-pyrimido[4,5-d]pyrimidin-S-yl]-1-prop-2-enoyl-pyrrolidine-2-carboxylic acid]"
0.88 nM,> 1000 nM,< 100 nM,< 100 nM,"C=CC(=O)N1CC[C@H](N2Cc3cnc(Nc4ccc(N5CCN(C)CC5)cc4)nc3N(CCO)C2=O)c2cccc(C)c21 [Compound 153, 1-(2-hydroxyethyl)-7-[4-(4-methylpiperazin-1-yl)anilino]-S-[(4S)-8-methyl-1-prop-2-enoyl-3,4-dihydro-2H-quinolin-4-yl]-4H-pyrimido[4,5-d]pyrimidin-2-one]"
1.13 nM,10 nM,< 100 nM,< 100 nM,C=CC(=O)N1CCC(N2Cc3cnc(Nc4ccc(N5CCN(C)CC5)cc4)nc3N(C)C2=O)c2cccc(O)c21 (centres unmarked) [Compound 133]
0.86 nM,> 1000 nM,< 100 nM,< 100 nM,"C=CC(=O)N1CC[C@H](N2Cc3cnc(Nc4ccc(N5CCN(C)CC5)cc4)nc3N(C3CCOC3)C2=O)c2cccc(C)c21 (stereo partly drawn) [Compound 151, 7-[4-(4-methylpiperazin-1-yl)anilino]-S-[(4S)-8-methyl-1-prop-2-enoyl-3,4-dihydro-2H-quinolin-4-yl]-1-tetrahydrofuran-S-yl-4H-pyrimido[4,5-d]pyrimidin-2-one]"
> 1000 nM,> 1000 nM,≥ 2500 nM,≥ 2500 nM,"C=C(CN1CC(N2Cc3cnc(Nc4ccc(N5CCN(C)CC5)cc4)nc3N(C)C2=O)C1)C(=O)O [Compound 137, 2-[[3-[1-methyl-7-[4-(4-methylpiperazin-1-yl)anilino]-2-oxo-4H-pyrimido[4,5-d]pyrimidin-S-yl]azetidin-1-yl]methyl]prop-2-enoic acid]"
> 1000 nM,> 1000 nM,100 to 500 nM,500 to 2500 nM,"C=CC(=O)N(C)c1ccccc1CN1Cc2cnc(Nc3ccc(N4CCN(C)CC4)cc3)nc2N(C)C1=O [Compound 139, N-methyl-N-[2-[[1-methyl-7-[4-(4-methylpiperazin-1-yl)anilino]-2-oxo-4H-pyrimido[4,5-d]pyrimidin-S-yl]methyl]phenyl]prop-2-enamide]"
1.77 nM,> 1000 nM,< 100 nM,< 100 nM,C=CC(=O)N1CC[C@H](N2Cc3cnc(Nc4ccc(CS(=O)(=O)NC)cc4)nc3N(C)C2=O)c2cccc(C)c21 [Compound 145]
> 100 nM,> 100 nM,≥ 2500 nM,≥ 2500 nM,C=C(F)C(=O)N1CCC(N2Cc3cnc(Nc4cnn(CCO)c4)nc3-n3ccnc32)c2ccccc21 (centres unmarked) [001A]
> 1000 nM,> 1000 nM,≥ 2500 nM,≥ 2500 nM,"C=C1CC[C@H]2C[C@@H](N3Cc4cnc(Nc5ccc(N6CCN(C)CC6)cc5)nc4N(C)C3=O)CCN2C1=O [Compound 157, 1-methyl-S-(7-methylene-6-oxo-2,3,4,8,9,9a-hexahydro-1 H-quinolizin-2-yl)-7-[4-(4-methylpiperazin-1-yl)anilino]-4H-pyrimido[4,5-d]pyrimidin-2-one]"
1.17 nM,> 1000 nM,< 100 nM,< 100 nM,"C=CC(=O)N1CC[C@H](N2Cc3cnc(Nc4ccc(N5CCN(C)CC5)cc4)nc3N(C3CC(O)C3)C2=O)c2cccc(C)c21 (stereo partly drawn) [Compound 152, 1-(3-hydroxycyclobutyl)-7-[4-(4-methylpiperazin-1-yl)anilino]-S-[(4S)-8-methyl-1-prop-2-enoyl-3,4-dihydro-2H-quinolin-4-yl]-4H-pyrimido[4,5-d]pyrimidin-2-one]"
> 1000 nM,> 1000 nM,100 to 500 nM,100 to 500 nM,C=CC(=O)N1CC[C@@H](N2Cc3cnc(Nc4ccc(N5CCN(C)CC5)cc4)nc3N(C)C2=O)c2cccc(C)c21 [Compound 141]
> 1000 nM,> 1000 nM,500 to 2500 nM,≥ 2500 nM,"C=CC(=O)N1CCC(N2Cc3cnc(Nc4ccc(N5CCN(C)CC5)cc4)nc3N(C)C2=O)c2cccc(Cl)c21 (centres unmarked) [Compound 147, 3-(8-chloro-1-prop-2-enoyl-3,4-dihydro-2H-quinolin-4-yl)-1-methyl-7-[4-(4-methylpiperazin-1-yl)anilino]-4H-pyrimido[4,5-d]pyrimidin-2-one]"
,,< 100 nM,< 100 nM,C=CC(=O)N1CCC(N2Cc3cnc(Nc4cnn(CCO)c4)nc3N(C)C2=O)c2ccccc21 (centres unmarked) [Compound 063]
,,≥ 2500 nM,≥ 2500 nM,C=CC(=O)N1CCC(N2Cc3cnc(Nc4ccc(N5CCN(C)CC5)cc4)nc3N(C)C2=O)C2(CCC2)C1 (centres unmarked) [Compound 094]
,,< 100 nM,< 100 nM,C=C(F)C(=O)N1CC[C@H](N2Cc3cnc(Nc4ccc5c(c4)CCN(C)C5)nc3N(C)C2=O)c2ccccc21 [Compound 098]
